Data as given in ChEMBL document CHEMBL1201862, “PubChem BioAssay data set” (2004).
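Each compound was tested at five concentrations against cells in 96-well plates for 48 hours. GI50 = concentration required for 50% inhibition of growth.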 Active and inactive are the calls of the source. Cut-off read from the data, not from the text of the source: active = GI50 up to about 1.1 µM and inactive = higher.

Tests used:
Experiment in all cases: NCI-60 cell line screen, 48 h
[1] = test system: M14
[2] = test system: BT-549
[3] = test system: DU-145
[4] = test system: LOX IMVI
[5] = test system: Malme-3M
[6] = test system: RPMI-8226
[7] = test system: SW-620
[8] = test system: SF-539
[9] = test system: SF-295
[10] = test system: SK-MEL-28
[11] = test system: SN12C
[12] = test system: NCI-H522
[13] = test system: NCI/ADR-RES
[14] = test system: COLO 205
[15] = test system: EKVX
[16] = test system: A498
[17] = test system: PC-3
[18] = test system: MDA-MB-231
[19] = test system: SNB-19
[20] = test system: A549
[21] = test system: IGROV-1
[22] = test system: HCC 2998
[23] = test system: MDA-MB-435
[24] = test system: OVCAR-4
[25] = test system: SK-MEL-5
[26] = test system: U-251
[27] = test system: KM12
[28] = test system: SK-OV-3
[29] = test system: T47D
[30] = test system: HCT-15
[31] = test system: RXF 393
[32] = test system: 786-0
[33] = test system: HCT-116
[34] = test system: Hs-578T
[35] = test system: HT-29
[36] = test system: ACHN
[37] = test system: OVCAR-8
[38] = test system: SK-MEL-2
[39] = test system: MDA-N
[40] = test system: MCF7
[41] = test system: UACC-62
[42] = test system: HOP-62
[43] = test system: NCI-H460
[44] = test system: SF-268
[45] = test system: NCI-H226
[46] = test system: K562
[47] = test system: NCI-H23
[48] = test system: CAKI-1
[49] = test system: HOP-92
[50] = test system: UACC-257
[51] = test system: OVCAR-5
[52] = test system: UO-31
[53] = test system: TK-10
[54] = test system: OVCAR-3
[55] = test system: SNB-75
[56] = test system: HL-60
[57] = test system: MOLT-4
[58] = test system: CCRF-CEM

Compound: O=C(O)c1cc(C(=O)C(=O)c2cc(C(=O)O)c(O)c3ccccc23)c2ccccc2c1O
- GI50 [1]: > 100 µM (inactive)
- GI50 [2]: > 100 µM (inactive)
- GI50 [3]: > 100 µM (inactive)
- GI50 [4]: > 100 µM (inactive)
- GI50 [5]: > 100 µM (inactive)
- GI50 [6]: > 100 µM (inactive)
- GI50 [7]: > 100 µM (inactive)
- GI50 [8]: > 100 µM (inactive)
- GI50 [9]: > 100 µM (inactive)
- GI50 [10]: > 100 µM (inactive)
- GI50 [11]: > 100 µM (inactive)
- GI50 [12]: > 100 µM (inactive)
- GI50 [13]: > 100 µM (inactive)
- GI50 [14]: > 100 µM (inactive)
- GI50 [15]: > 100 µM (inactive)
- GI50 [16]: > 100 µM (inactive)
- GI50 [17]: > 100 µM (inactive)
- GI50 [18]: > 100 µM (inactive)
- GI50 [19]: > 100 µM (inactive)
- GI50 [20]: > 100 µM (inactive)
- GI50 [21]: > 100 µM (inactive)
- GI50 [22]: > 100 µM (inactive)
- GI50 [23]: > 100 µM (inactive)
- GI50 [24]: > 100 µM (inactive)
- GI50 [25]: > 100 µM (inactive)
- GI50 [26]: > 100 µM (inactive)
- GI50 [27]: > 100 µM (inactive)
- GI50 [28]: > 100 µM (inactive)
- GI50 [29]: > 100 µM (inactive)
- GI50 [30]: > 100 µM
- GI50 [31]: > 100 µM (inactive)
- GI50 [32]: > 100 µM (inactive)
- GI50 [33]: > 100 µM (inactive)
- GI50 [34]: > 100 µM (inactive)
- GI50 [35]: > 100 µM (inactive)
- GI50 [36]: > 100 µM (inactive)
- GI50 [37]: > 100 µM (inactive)
- GI50 [38]: > 100 µM (inactive)
- GI50 [39]: > 100 µM (inactive)
- GI50 [40]: > 100 µM (inactive)
- GI50 [41]: > 100 µM (inactive)
- GI50 [42]: > 100 µM (inactive)
- GI50 [43]: > 100 µM (inactive)
- GI50 [44]: > 100 µM (inactive)
- GI50 [45]: > 100 µM (inactive)
- GI50 [46]: > 100 µM (inactive)
- GI50 [47]: > 100 µM (inactive)
- GI50 [48]: > 100 µM (inactive)
- GI50 [49]: > 100 µM (inactive)
- GI50 [50]: > 100 µM (inactive)
- GI50 [51]: > 100 µM (inactive)
- GI50 [52]: > 100 µM (inactive)
- GI50 [53]: > 100 µM (inactive)
- GI50 [54]: > 100 µM (inactive)
- GI50 [55]: > 100 µM (inactive)

Compound: CCOc1ccc2nc3nc(O)nc(C)c3c(NC(C)(CO)CO)c2c1
- GI50 [1]: > 100 µM (inactive)
- GI50 [2]: > 100 µM (inactive)
- GI50 [3]: > 100 µM (inactive)
- GI50 [4]: > 100 µM (inactive)
- GI50 [5]: > 100 µM (inactive)
- GI50 [7]: > 100 µM (inactive)
- GI50 [8]: > 100 µM (inactive)
- GI50 [9]: > 100 µM (inactive)
- GI50 [10]: > 100 µM (inactive)
- GI50 [11]: > 100 µM (inactive)
- GI50 [12]: > 100 µM (inactive)
- GI50 [13]: > 100 µM (inactive)
- GI50 [14]: > 100 µM (inactive)
- GI50 [15]: > 100 µM (inactive)
- GI50 [16]: > 100 µM (inactive)
- GI50 [17]: > 100 µM (inactive)
- GI50 [18]: > 100 µM (inactive)
- GI50 [19]: > 100 µM (inactive)
- GI50 [20]: > 100 µM (inactive)
- GI50 [56]: > 100 µM (inactive)
- GI50 [21]: > 100 µM (inactive)
- GI50 [22]: > 100 µM (inactive)
- GI50 [23]: > 100 µM (inactive)
- GI50 [24]: > 100 µM (inactive)
- GI50 [25]: > 100 µM (inactive)
- GI50 [26]: > 100 µM (inactive)
- GI50 [27]: > 100 µM (inactive)
- GI50 [28]: > 100 µM (inactive)
- GI50 [29]: > 100 µM (inactive)
- GI50 [30]: > 100 µM
- GI50 [31]: > 100 µM (inactive)
- GI50 [32]: > 100 µM (inactive)
- GI50 [33]: > 100 µM (inactive)
- GI50 [34]: > 100 µM (inactive)
- GI50 [35]: > 100 µM (inactive)
- GI50 [36]: > 100 µM (inactive)
- GI50 [37]: > 100 µM (inactive)
- GI50 [38]: > 100 µM (inactive)
- GI50 [39]: > 100 µM (inactive)
- GI50 [40]: 4.08 µM (inactive)
- GI50 [41]: > 100 µM (inactive)
- GI50 [42]: > 100 µM (inactive)
- GI50 [43]: > 100 µM (inactive)
- GI50 [44]: > 100 µM (inactive)
- GI50 [45]: > 100 µM (inactive)
- GI50 [57]: > 100 µM (inactive)
- GI50 [46]: > 100 µM (inactive)
- GI50 [47]: > 100 µM (inactive)
- GI50 [48]: > 100 µM (inactive)
- GI50 [58]: > 100 µM (inactive)
- GI50 [49]: > 100 µM (inactive)
- GI50 [50]: > 100 µM (inactive)
- GI50 [51]: > 100 µM (inactive)
- GI50 [52]: > 100 µM (inactive)
- GI50 [53]: > 100 µM (inactive)
- GI50 [54]: > 100 µM (inactive)
- GI50 [55]: > 100 µM (inactive)
